The values below come from patent US20120101136A1, “5-MEMBERED HETEROARYL DERIVATIVES USED AS SPHINGOSINE 1- PHOSPHATE RECEPTOR AGONISTS” (GLAXO GROUP LIMITED, priority 2009, published 2012).

SMILES strings stand for the structures.

In the assay the target is T1, S1P1 receptor (human Endothelial Differentiation Gene 1 (EDG1)) (Homo sapiens, UniProt P21453).
T1 construct: TEV protease site; Gal4-VP16 transcription factor; expressed in transfected cells; host or cells: Tango GPCR-bla U2OS parental cell line (EDG1-bla/U2OS)
T1 sequence (P21453 whole entry, the tested form may be a part): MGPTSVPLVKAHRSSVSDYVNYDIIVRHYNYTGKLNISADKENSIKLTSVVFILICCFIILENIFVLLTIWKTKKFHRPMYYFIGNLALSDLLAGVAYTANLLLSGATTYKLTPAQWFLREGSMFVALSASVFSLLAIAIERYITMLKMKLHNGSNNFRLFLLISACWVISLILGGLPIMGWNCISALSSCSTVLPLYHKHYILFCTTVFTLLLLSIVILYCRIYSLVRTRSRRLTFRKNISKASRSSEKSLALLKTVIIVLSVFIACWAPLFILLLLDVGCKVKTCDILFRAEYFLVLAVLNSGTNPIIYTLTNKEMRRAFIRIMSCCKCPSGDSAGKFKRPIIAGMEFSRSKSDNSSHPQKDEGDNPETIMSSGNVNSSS
The assay can be described thus: S1P1 Tango Assay - 384 Well Format (EDG1-bla/U2OS cells). The class given is cell-based. The following applies: agonist, beta-lactamase reporter. Here is the method:
Recombinant EDG1-bla/U2OS cells (contain the human Endothelial Differentiation Gene 1 (EDG1) linked to a TEV protease site and a Gal4-VP16 transcription factor stably integrated into the Tango GPCR-bla U2OS parental cell line) were harvested from growth medium and passaged into assay medium (Invitrogen Freestyle Expression Medium). The cells were starved for 24 hours at 37° C., 5% CO2, harvested and resuspended in assay medium at a density of ˜200,000 cells/ml.
All test compounds were dissolved in DMSO at a concentration of 10 mM and were prepared in 100% DMSO to provide 10 point dose response curves. Test compounds prepared by Bravo (Velocity 11) were added to wells in columns 2-11 and 13-22; DMSO was added to wells in columns 12 and 23 as unstimulated controls and assay medium was added to wells in columns 1 and 24 as cell-free controls. An S1P1 agonist was added to wells in row 2, columns 2-11 as stimulated controls and test compounds were added to wells in row 2, columns 13-22 and rows 3-15, columns 2-11/13-22 (row 1 and 16 were empty and not used). Compounds in solution were added to the assay plate (Greiner 781090) using an Echo (Labcyte) dose-response program (50 nl/well). The unstimulated and cell-free controls were loaded with 50 nl/well pure DMSO to ensure that the DMSO concentration was constant across the plate for all assays.
50 μl of the cell suspension was added to each well in columns 2-23 of the plate (˜10,000 cells per well). 50 μl of assay medium was added to each well in the cell-free controls (columns 1 and 24). The cells were incubated overnight at 37° C./5% CO2.
10 μl of 6× substrate mixture (LiveBLAzer™-FRET B/G substrate (CCF4-AM) Cat # K1096 from Invitrogen, Inc.) was added to each well using Bravo and the plates incubated at room temperature for 2 h in the dark. The plate was finally read on EnVision using one excitation channel (409 nm) and two emission channels (460 nm and 530 nm).
The blue/green emission ratio (460 nm/530 nm) was calculated for each well, by dividing the background-subtracted Blue emission values by the background-subtracted Green emission values. The dose response curve is based on sigmoidal dose-response model. All ratio data was normalized based upon the maximum emission ratio of positive control and minimum emission ratio of negative control (DMSO) on each plate. The intrinsic activity (IA) of each compound would be the normalized percentage of its maximum response after curve fitting.
The EC50 is the concentration needed to bring the measured effect to its halfway point. A lower EC50 goes with an effect from little substance. Consider `COc1cc(OCCCCC(=O)O)ccc1-c1noc(-c2ccc(OC(C)C)c(C#N)c2)n1` [Example 12, 5-{[4-(5-{3-Cyano-4-[(1-methylethyl)oxy]phenyl}-1,2,4-oxadiazol-3-yl)-3-(methyloxy)phenyl]oxy}pentanoic acid], for which the EC50 is not above 1 nM.
Turning to `CCc1cc(OCCCC(=O)O)ccc1-c1nnc(-c2ccc(OC(C)C)c(C#N)c2)o1` [Example 15, 4-{[4-(5-{3-cyano-4-[(1-methylethyl)oxy]phenyl}-1,3,4-oxadiazol-2-yl)-3-ethylphenyl]oxy}butanoic acid], the EC50 was not above 1 nM.
`Cc1cc(OCC(=O)O)ccc1-c1noc(-c2ccc(OC(C)C)c(Cl)c2)n1` [Example 3, {[4-(5-{3-Chloro-4-[(1-methylethyl)oxy]phenyl}-1,2,4-oxadiazol-3-yl)-3-methylphenyl]oxy}acetic acid] showed a concentration for a half-maximal effect (EC50) not above 1 nM.
For the compound `CC(C)Oc1ccc(-c2nc(-c3ccc(OCCCCC(=O)O)cc3)no2)cc1C#N` [Example 8, 5-{[4-(5-{3-Cyano-4-[(1-methylethyl)oxy]phenyl}-1,2,4-oxadiazol-3-yl)phenyl]oxy}pentanoic acid], the half-maximal effective concentration (EC50) was not above 1 nM.
`CCc1cc(OCCCNC)ccc1-c1noc(-c2ccc(OC(C)C)c(C#N)c2)n1` [Example 39, 5-[3-(2-ethyl-4-{[3-(methylamino)propyl]oxy}phenyl)-1,2,4-oxadiazol-5-yl]-2-[(1-methylethyl)oxy]benzonitrile] gave an EC50 not above 1 nM.
The same measure for `CC(C)Oc1ccc(-c2nc(-c3ccc(OCCCC(=O)O)cc3Cl)no2)cc1C#N` [Example 10, 4-{[3-Chloro-4-(5-{3-cyano-4-[(1-methylethyl)oxy]phenyl}-1,2,4-oxadiazol-3-yl)phenyl]oxy}butanoic acid]: not above 0.1 nM; for `CC(C)Oc1ccc(-c2nc(-c3ccc(OCCCCN(C)C)cc3Cl)no2)cc1C#N` [Example 17, 5-[3-(2-chloro-4-{[4-(dimethylamino)butyl]oxy}phenyl)-1,2,4-oxadiazol-5-yl]-2-[(1-methylethyl)oxy]benzonitrile]: not above 10 nM; for `CNCCOc1ccc(-c2noc(-c3ccc(OC(C)C)c(Cl)c3)n2)c(C)c1` [Example 5, 2-{[4-(5-{3-Chloro-4-[(1-methylethyl)oxy]phenyl}-1,2,4-oxadiazol-3-yl)-3-methylphenyl]oxy}-N-methylethanamine]: not above 10 nM.
The same measure for `CCc1cc(OCCCC(=O)O)ccc1-c1noc(-c2ccc(OC(C)C)c(Cl)c2)n1` [Example 30, 4-{[4-(5-{3-chloro-4-[(1-methylethyl)oxy]phenyl}-1,2,4-oxadiazol-3-yl)-3-ethylphenyl]oxy}butanoic acid]: not above 0.1 nM.
Compound `CCc1cc(OCCCCNC)ccc1-c1noc(-c2ccc(OC(C)C)c(C#N)c2)n1` [Example 38, 5-[3-(2-ethyl-4-{[4-(methylamino)butyl]oxy}phenyl)-1,2,4-oxadiazol-5-yl]-2-[(1-methylethyl)oxy]benzonitrile] gave an EC50 not above 10 nM.
The same measure for `CCc1cc(OCC(=O)O)ccc1-c1noc(-c2ccc(OC(C)C)c(C#N)c2)n1` [Example 27, {[4-(5-{3-cyano-4-[(1-methylethyl)oxy]phenyl}-1,2,4-oxadiazol-3-yl)-3-ethylphenyl]oxy}acetic acid]: not above 1 nM; for `CC(C)Oc1ccc(-c2nc(-c3ccc(OCCCC(=O)O)cc3F)no2)cc1C#N` [Example 22, 4-{[4-(5-{3-cyano-4-[(1-methylethyl)oxy]phenyl}-1,2,4-oxadiazol-3-yl)-3-fluorophenyl]oxy}butanoic acid]: not above 0.1 nM.
`CCc1cc(OCCCCNC)ccc1-c1noc(-c2ccc(OC(C)C)c(Cl)c2)n1` [Example 34, (4-{[4-(5-{3-chloro-4-[(1-methylethyl)oxy]phenyl}-1,2,4-oxadiazol-3-yl)-3-ethylphenyl]oxy}butyl)methylamine] showed an EC50 not above 100 nM.
As for `CC(C)Oc1ccc(-c2nc(-c3ccc(OCCCCC(=O)O)cc3Cl)no2)cc1C#N` [Example 7, 5-{[3-Chloro-4-(5-{3-cyano-4-[(1-methylethyl)oxy]phenyl}-1,2,4-oxadiazol-3-yl)phenyl]oxy}pentanoic acid], the EC50 is not above 0.1 nM.
